Values joined by “and” are separate entries in the source; they are usually repeats but may differ in a detail not shown here. Equal values may be shown once.
What was measured:
[1] = calcium carbonate scale inhibition (conductometric titration, supersaturation ratio Sr)
Experimental: To a 100 mL beaker were added 60 mL of HPLC-grade water and 3 mL of 0.1 M calcium chloride. An appropriate amount (0.5-4 mL) of an aqueous solution of the inhibitor compound of Formula (I) to be tested was then added. The solution was magnetically stirred at a constant speed for all experiments. The sample was then titrated with 0.1 M sodium carbonate. After addition of each 0.2 mL aliquot of sodium carbonate titrant, the solution was mixed for 1 min and then the conductivity of the solution measured.
As titrant is added the conductivity increases in a linear fashion. When the supersaturation point is reached, the conductivity decreases and precipitation begins. This is considered the endpoint of the titration. The resulting titration endpoint volumes are used to calculate a relative supersaturation ratio (Sr). This is the ratio of the supersaturation of calcium carbonate in the presence of the compound of Formula (I) being tested to the value of the supersaturation of water without inhibitor (distilled water plus 3 mL of 0.1 M calcium chloride). Thus, compounds with Sr>1 are displaying scale inhibition.
The scale inhibition performance of various compounds of Formula (I) and comparative compounds were compared at the same molar concentration. These compounds were tested at 60 μM concentration except where noted otherwise. Compound numbers are from Table 1.

[2] = mild steel corrosion inhibition, ASTM G31-72 coupon weight loss
Experimental: (§1) Corrosion inhibition studies of various compounds of Formula (I) were conducted according to ASTM method G31-72 (2004). The following is the general test method.
(§2) Aqueous solutions of the test compound (900 mL) were prepared with city water for mild steel corrosion studies or a dilute sea salt solution (1000 ppm in deionized water) for copper corrosion studies. The solutions were magnetically stirred at a constant rate in a 1 L beaker and three coupons of either mild steel or copper were suspended in each beaker. After 5 days (steel) or 7 days (copper), the coupons were removed and cleaned according to ASTM method G1-03. Average weight loss was determined for each set of three coupons and then converted to corrosion rate in terms of mils per year (mpy).
These tests compare the corrosion inhibition of compounds of Formula (I), namely from Table 1, in the first set of comparisons, Compound A with Compound 13, and Compound B with Compound 1, and with 2-hydroxypropane-1,2,3-tricarboxylic acid. Thus five samples were tested relative to a blank and a standard, (1-hydroxyethan-1,1-diyl)bis(phosphonic acid), after 5 days at 26 μM concentrations. […] Concentrations were 26 μM.
Additional mild steel corrosion tests were performed at 130 μM concentration of compounds of Formula (I) and comparative compounds for 5 days. The next test compared the corrosion inhibition of Compound 8 with 2,3-dihydroxybutanedioic acid and Compound B, and Compound 4 with (1-hydroxyethan-1,1-diyl)bis(phosphonic acid) and Compound B. Also included was Compound 1 for reference. Concentrations in this set were 130 μM.

[3] = copper corrosion inhibition, ASTM G31-72 coupon weight loss
Experimental: as §1, §2
The first test of copper corrosion inhibition compared Compound A with Compound 13 (from Table 1), 2-hydroxypropane-1,2,3-tricarboxylic acid, and a commercial inhibitor, Na-TAI.

[4] = 5 days, 130 μM, Table 4 (blank 24 mpy)
[5] = 130 μM, Table 5 (blank 12.5 mpy)

O=C(O)C(O)C(O)C(O)C(O)C(=O)O (stereo not drawn) [2,3,4,5-tetrahydroxyhexanedioic acid]
Sr (supersaturation ratio) ([1]; 60 μM): 1.4

O=C(O)C(O)C(O)C(=O)O (stereo not drawn) [2,3-Dihydroxybutanedioic acid]
Sr (supersaturation ratio) ([1]; 60 μM): 1.0 | Inhibition relative to blank [2, 4]: 20%

O=C(O)CC(O)(CC(=O)O)C(=O)O [2-hydroxypropane-1,2,3-tricarboxylic acid]
Sr (supersaturation ratio) ([1]; 63 μM): 1.2 | Inhibition relative to blank ([2]; 5 days, 26 μM, Table 3, 26 µM): 9.8% and 10% | Inhibition relative to blank ([3]; 42 μM, Table 7): 9% | Inhibition relative to blank ([3]; 7 days, 17 μM, Table 6): 0%

O=C(O)CCC(CC(=O)O)(C(=O)O)P(=O)(O)O (stereo not drawn) [2-phosphonobutane-1,2,4-tricarboxylic acid]
Sr (supersaturation ratio) ([1]; 5.9 μM): 3.0

CC(O)(P(=O)(O)O)P(=O)(O)O [(1-hydroxyethan-1,1-diyl)bis(phosphonic acid)]
Sr (supersaturation ratio) ([1]; 45 μM): 2.5 | Sr (supersaturation ratio) ([1]; 60 μM): 4.4 | Inhibition relative to blank ([2]; 5 days, 26 μM, Table 3): 36% | Inhibition relative to blank [2, 4]: 62%

O=C(O)CCC(=O)O [Butanedioic acid]
Sr (supersaturation ratio) ([1]; 60 μM): 1.0

CC(O)(P(=O)(O)O)P(=O)(O)O.CCCCCCCCCCOCCCN [Compound 4, Salt of Oxyamine (II) and (1-Hydroxyethan-1,1-diyl)bis(phosphonic acid) (1:1 Molar Stoichiometry)]
Sr (supersaturation ratio) ([1]; 60 μM): 4.3 | Inhibition relative to blank [2, 4]: 68%

O=C(O)C(=O)O [Ethanedioic acid]
Inhibition relative to blank [2, 5]: −16%

[Na+].c1ccc2[n-]nnc2c1 [Na-TAI, sodium salt of 1,2,3-triaza-1H-indene]
Inhibition relative to blank ([3]; 7 days, 17 μM, Table 6): 71%

O=P(O)(O)O [Trihydroxidooxidophosphorus]
Inhibition relative to blank [2, 5]: 40%

Salt of Oxyamine (II) and 2,3-Dihydroxybutanedioic acid salt (1:1 molar stoichiometry) [Compound 8]
Sr (supersaturation ratio) ([1]; 60 μM): 1.3 | Sr (supersaturation ratio) ([1]; 120 μM): 1.5 | Inhibition relative to blank [2, 4]: 44%

Salt of Oxyamine (II) and Butanedioic acid salt (1:1 molar stoichiometry) [Compound 10]
Sr (supersaturation ratio) ([1]; 60 μM): 1.0

Salt of Oxyamine (II) and Ethanedioic acid salt (1:1 molar stoichiometry [Compound 2]
Inhibition relative to blank [2, 5]: −21%

Salt of Oxyamine (II) and Trihydroxidooxidophosphorus salt (1:1 molar stoichiometry) [Compound 3]
Inhibition relative to blank [2, 5]: 55%
